Data published in patent US20230372296A1, “COMPOSITIONS AND METHODS FOR ANXIETY DISORDER TREATMENT” (PSILOBRAIN THERAPEUTICS INC., priority 2020, published 2023).

System: C57BL/6 mice
Test: elevated plus maze model of anxiety disorder
Format: in vivo
Excerpt: The dosage ranges are based upon our preclinical rodent studies testing the anti-anxiety effects of formula (I) and crocin (across varying doses and combinations) on mouse behavior in the elevated plus maze task (see FIG. 1). The elevated plus maze is one of the most widely used tests for measuring anxiety-like behavior and the anti-anxiety effects of pharmacological agents and is based on the natural aversion of mice for open and elevated areas, as well as their natural spontaneous exploratory activity in novel environments. […] Finally, these dosage ranges, as identified from our preclinical studies are commensurate with clinical dosages safely prescribed in humans.
The elevated plus maze model is a behavioral assay for rodents which has been used to assess the […] effect of pharmacological agents. In the model, anxiety behavior of rodents is assessed by determining the ratio of time spent on the arms relative to the time spent in the closed arms of the elevated plus maze structure. The model relies on rodents' affinity to dark, enclosed spaces.
In the elevated plus model, C57BL/6 mice, aged between 6 and 7 weeks were acclimated for at least five days and assigned randomly to treatment groups. Mice were housed on a 12 hour light/dark cycle. No more than 4 mice were kept in each ventilated cage. Mice were provided with standard rodent chow and water ad libitum. Test compounds were administered through the oral route in a volume of 10 milliliters per kilogram (ml/kg) and were formulated in 0.9% saline. 12 groups of mice were tested in the model, each group consisting of 10 mice. After acclimation, test compositions were administered to the animals in the amounts, in milligram per kilogram of mouse weight (mg/kg) according to table 1.
As shown in the table, Group 1 was administered vehicle only. Groups 2 through 7 were administered various combinations of psilocybin and crocin. Groups 8-12 were administered either psilocybin alone or crocin alone. Behavioral testing was performed between 7-9 days after administration of the compounds.
Testing was performed in dim light of 40 lux. The elevated plus maze consists of two open and two closed arms (arm length: 30 cm; width: 5 cm). Open arms have a small 1 cm edge and the closed arms are bordered by a 15 cm wall. At the beginning of the task, mice were placed in the center of the elevated plus maze facing an open arm. Mice were video tracked while exploring the maze for 5 min. The time spent in the open and closed arms was measured and analyzed.
Comparisons were performed using 1 w-ANOVA, Fisher's LSD test. Significance is shown with a single asterisk if P<0.05, with a double asterisk if P<0.01, and with a triple asterisk if P<0.001.

CC(/C=C/C=C(\C)C(=O)O[C@@H]1O[C@H](CO[C@@H]2O[C@H](CO)[C@@H](O)[C@H](O)[C@H]2O)[C@@H](O)[C@H](O)[C@H]1O)=C\C=C\C=C(C)\C=C\C=C(/C)C(=O)O[C@@H]1O[C@H](CO[C@@H]2O[C@H](CO)[C@@H](O)[C@H](O)[C@H]2O)[C@@H](O)[C@H](O)[C@H]1O [crocin, Crocin]
time in open arms of elevated plus maze vs vehicle (crocin alone 30 mg/kg oral, tested 7-9 days after administration, 5 min): did not show a significant beneficial effect on anxiety | time in open arms of elevated plus maze vs vehicle (crocin alone 50 mg/kg oral, tested 7-9 days after administration, 5 min): did not show a significant beneficial effect on anxiety

CN(C)CCc1c[nH]c2cccc(OP(=O)(O)O)c12 [psilocybin, Psilocybin]
time in open arms of elevated plus maze vs vehicle (psilocybin 0.5 mg/kg and higher, administered on its own): either no changes in mouse behavior were observed, or increased anxiety-like behavior | time in open arms of elevated plus maze vs vehicle (psilocybin alone 0.1 mg/kg oral, tested 7-9 days after administration, 5 min): no significant difference | time in open arms of elevated plus maze vs vehicle (psilocybin alone 0.5 mg/kg oral, tested 7-9 days after administration, 5 min): significant reduction in open arm time | time in open arms of elevated plus maze vs vehicle (psilocybin alone 1 mg/kg oral, tested 7-9 days after administration, 5 min): significant reduction in open arm time
